Assay results as given in patent US8163732B2, “Tricyclic heteroaryl compounds useful as inhibitors of Janus kinase” (Vertex Pharmaceuticals Incorporated, priority 2005, dated 2012).

How the values were obtained:
[1] = biological target: T1, JAK-3 (Homo sapiens, UniProt P52333); test: JAK-3 inhibition assay; format: biochemical
T1 sequence (P52333 1-1124): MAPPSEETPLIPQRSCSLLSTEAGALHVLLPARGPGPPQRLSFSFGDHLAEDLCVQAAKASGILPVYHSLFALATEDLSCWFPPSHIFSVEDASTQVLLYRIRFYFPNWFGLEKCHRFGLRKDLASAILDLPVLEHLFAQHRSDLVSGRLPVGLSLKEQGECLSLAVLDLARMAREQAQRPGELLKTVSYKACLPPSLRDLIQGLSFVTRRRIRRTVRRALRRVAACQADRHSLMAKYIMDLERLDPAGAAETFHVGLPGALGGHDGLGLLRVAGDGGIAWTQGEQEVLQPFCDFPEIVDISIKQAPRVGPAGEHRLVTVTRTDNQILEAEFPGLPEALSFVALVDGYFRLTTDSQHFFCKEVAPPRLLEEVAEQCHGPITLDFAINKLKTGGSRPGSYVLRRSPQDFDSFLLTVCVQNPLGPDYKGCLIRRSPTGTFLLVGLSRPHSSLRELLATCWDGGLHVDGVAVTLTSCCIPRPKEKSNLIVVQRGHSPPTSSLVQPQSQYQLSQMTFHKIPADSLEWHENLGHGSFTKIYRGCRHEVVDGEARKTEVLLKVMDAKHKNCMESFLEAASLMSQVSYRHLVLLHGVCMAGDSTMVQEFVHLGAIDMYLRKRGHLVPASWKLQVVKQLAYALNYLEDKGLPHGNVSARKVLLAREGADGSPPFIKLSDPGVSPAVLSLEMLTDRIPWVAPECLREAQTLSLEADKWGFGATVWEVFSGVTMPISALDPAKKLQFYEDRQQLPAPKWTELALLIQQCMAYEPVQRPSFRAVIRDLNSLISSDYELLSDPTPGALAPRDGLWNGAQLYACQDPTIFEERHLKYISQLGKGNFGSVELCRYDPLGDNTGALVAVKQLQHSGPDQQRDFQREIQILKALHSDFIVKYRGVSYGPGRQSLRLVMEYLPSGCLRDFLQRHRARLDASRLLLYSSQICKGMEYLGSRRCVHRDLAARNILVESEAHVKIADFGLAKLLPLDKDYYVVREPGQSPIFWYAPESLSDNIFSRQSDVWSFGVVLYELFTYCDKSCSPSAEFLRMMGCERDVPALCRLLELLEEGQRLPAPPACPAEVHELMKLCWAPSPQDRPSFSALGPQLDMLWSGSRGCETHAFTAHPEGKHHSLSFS
Method: Compounds were screened for their ability to inhibit JAK using the assay shown below. Reactions were carried out in a kinase buffer containing 100 mM HEPES (pH 7.4), 1 mM DTT, 10 mM MgCl2, 25 mM NaCl, and 0.01% BSA.
Substrate concentrations in the assay were 5 μM ATP (200 μCi/μmole ATP) and 1 μM poly(Glu)4Tyr. Reactions were carried out at 25° C. and 1 nM JAK-3.
To each well of a 96 well polycarbonate plate was added 1.5 μL of a candidate JAK-3 inhibitor along with 50 μL of kinase buffer containing 2 μM poly(Glu)4Tyr and 10 μM ATP. This was then mixed and 50 μL of kinase buffer containing 2 nM JAK-3 enzyme was added to start the reaction. After 20 minutes at room temperature (25° C.), the reaction was stopped with 50 μL of 20% trichloroacetic acid (TCA) that also contained 0.4 mM ATP. The entire contents of each well were then transferred to a 96 well glass fiber filter plate using a TomTek Cell Harvester. After washing, 60 μL of scintillation fluid was added and ^33P incorporation detected on a Perkin Elmer TopCount. After removing the mean background values for all of the data points, the data were fit using Prism software to obtain a Ki value (app).

[2] = biological target: JAK-2 (Homo sapiens, UniProt O60674); test: JAK-2 inhibition assay; format: biochemical
Chain of JAK-2 (O60674 whole entry): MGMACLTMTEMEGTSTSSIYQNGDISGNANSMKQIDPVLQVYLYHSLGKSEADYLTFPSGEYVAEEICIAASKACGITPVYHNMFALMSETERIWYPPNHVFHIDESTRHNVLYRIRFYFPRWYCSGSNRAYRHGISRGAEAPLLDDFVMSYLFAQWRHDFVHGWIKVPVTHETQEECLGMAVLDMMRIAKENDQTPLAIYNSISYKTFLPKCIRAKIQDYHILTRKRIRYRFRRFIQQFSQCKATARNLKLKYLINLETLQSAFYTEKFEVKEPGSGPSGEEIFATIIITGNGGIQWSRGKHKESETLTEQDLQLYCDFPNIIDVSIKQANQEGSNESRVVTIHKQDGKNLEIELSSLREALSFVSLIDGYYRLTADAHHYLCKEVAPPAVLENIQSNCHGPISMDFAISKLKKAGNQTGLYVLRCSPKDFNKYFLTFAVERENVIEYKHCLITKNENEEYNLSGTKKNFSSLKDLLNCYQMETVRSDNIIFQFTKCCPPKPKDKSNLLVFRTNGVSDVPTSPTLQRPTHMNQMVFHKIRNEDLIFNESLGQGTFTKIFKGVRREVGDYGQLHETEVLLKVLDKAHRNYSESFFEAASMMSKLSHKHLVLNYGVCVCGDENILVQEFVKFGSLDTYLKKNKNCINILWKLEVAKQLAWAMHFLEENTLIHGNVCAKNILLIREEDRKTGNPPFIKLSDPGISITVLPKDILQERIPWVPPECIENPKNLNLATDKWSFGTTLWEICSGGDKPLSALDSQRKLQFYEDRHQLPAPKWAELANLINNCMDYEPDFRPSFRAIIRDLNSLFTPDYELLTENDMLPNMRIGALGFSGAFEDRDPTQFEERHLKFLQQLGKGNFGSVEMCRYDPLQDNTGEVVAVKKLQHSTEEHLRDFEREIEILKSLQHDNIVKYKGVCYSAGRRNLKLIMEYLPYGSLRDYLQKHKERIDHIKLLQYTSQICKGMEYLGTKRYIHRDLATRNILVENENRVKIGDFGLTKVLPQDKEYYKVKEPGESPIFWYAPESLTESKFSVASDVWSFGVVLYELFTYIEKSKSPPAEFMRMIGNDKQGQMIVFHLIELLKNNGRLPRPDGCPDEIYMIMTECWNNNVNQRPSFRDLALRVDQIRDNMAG

| Compound | Ki [1] [µM] | Ki [2] [µM] |
| --- | --- | --- |
| Fc1cccc(F)c1C1Nc2ncccc2-c2ccnc3[nH]cc1c23 (stereo not shown) [Compound 47] | 0.25 to 2.5 | 0.25 to 2.5 |
| Fc1cccc(C2Nc3ncccc3-c3ccnc4[nH]cc2c34)c1 (stereo not shown) [Compound 48] | 0.25 to 2.5 | 0.25 to 2.5 |
| Fc1cccc(F)c1C1Nc2ccccc2-c2ncnc3[nH]cc1c23 (stereo not shown) [Compound 49] | 0.25 to 2.5 | < 0.25 |
| Fc1cccc(C2Nc3ccccc3-c3ncnc4[nH]cc2c34)c1 (stereo not shown) [Compound 50] | > 2.5 | 0.25 to 2.5 |
| CC1=Nc2ccccc2-c2ccnc3[nH]cc1c23 [Compound 51] | 0.25 to 2.5 | 0.25 to 2.5 |
| Fc1cccc(F)c1C1Nc2ccccc2-c2c(Cl)cnc3[nH]cc1c23 (stereo not shown) [Compound 52] | 0.25 to 2.5 | 0.25 to 2.5 |
| Oc1ccc(C2Nc3ccccc3-c3c(Cl)cnc4[nH]cc2c34)c(Cl)c1 (stereo not shown) [Compound 53] | ≤ 0.25 | < 0.25 |
| Fc1ccc(F)c(C2Nc3ccccc3-c3c(Cl)cnc4[nH]cc2c34)c1F (stereo not shown) [Compound 54] | 0.25 to 2.5 | < 0.25 |
| Oc1ccc(C2Nc3ccccc3-c3ncnc4[nH]cc2c34)c(Cl)c1 (stereo not shown) [Compound 55] | ≤ 0.25 | < 0.25 |
| Fc1ccc(F)c(C2Nc3ccccc3-c3ncnc4[nH]cc2c34)c1F (stereo not shown) [Compound 56] | ≤ 0.25 | < 0.25 |
| Oc1ccc(C2Nc3ncccc3-c3ccnc4[nH]cc2c34)c(Cl)c1 (stereo not shown) [Compound 57] | ≤ 0.25 | < 0.25 |
| OCCCCC1=Nc2ccccc2-c2ccnc3[nH]cc1c23 [Compound 58] | 0.25 to 2.5 | 0.25 to 2.5 |
| OCCCC1Nc2ccccc2-c2ccnc3[nH]cc1c23 (stereo not shown) [Compound 60] | > 2.5 | 0.25 to 2.5 |
| Oc1ccc([C@H]2Nc3ccccc3-c3ccnc4[nH]cc2c34)c(Cl)c1 [Compound 62] | ≤ 0.25 | < 0.25 |
| Oc1ccc(C2=Nc3ccccc3-c3ccnc4[nH]cc2c34)c(Cl)c1 [Compound 63] | ≤ 0.25 | < 0.25 |
| COc1cc(C2Nc3ccccc3-c3ccnc4[nH]cc2c34)cc(O)c1O (stereo not shown) [Compound 64] | ≤ 0.25 | < 0.25 |
| Oc1ccc(C2Nc3ccccc3-c3ccnc4[nH]cc2c34)cc1O (stereo not shown) [Compound 66] | ≤ 0.25 | < 0.25 |
| Oc1c(Cl)cc(C2Nc3ccccc3-c3ccnc4[nH]cc2c34)cc1Cl (stereo not shown) [Compound 67] | ≤ 0.25 | < 0.25 |
| COc1cc(C2Nc3ccccc3-c3ccnc4[nH]cc2c34)cc(F)c1O (stereo not shown) [Compound 68] | ≤ 0.25 | < 0.25 |

| Compound | Ki [1] [µM] | Ki [2] [µM] |
| --- | --- | --- |
| Oc1cccc(C2Nc3ccccc3-c3ccnc4[nH]cc2c34)c1O (stereo not shown) [Compound 69] | ≤ 0.25 | < 0.25 |
| COc1ccc(C2Nc3ccccc3-c3ccnc4[nH]cc2c34)c(Cl)c1O (stereo not shown) [Compound 70] | 0.25 to 2.5 | < 0.25 |
| O=[N+]([O-])c1cc(O)ccc1C1Nc2ccccc2-c2ccnc3[nH]cc1c23 (stereo not shown) [Compound 71] | ≤ 0.25 | < 0.25 |
| Oc1ccc(O)c(C2Nc3ccccc3-c3ccnc4[nH]cc2c34)c1 (stereo not shown) [Compound 72] | 0.25 to 2.5 | > 2.5 |
| COc1cc(C2Nc3ccccc3-c3ccnc4[nH]cc2c34)ccc1O (stereo not shown) [Compound 73] | ≤ 0.25 | < 0.25 |
| Oc1ccc(C2Nc3ccccc3-c3ccnc4[nH]cc2c34)cc1Cl (stereo not shown) [Compound 74] | ≤ 0.25 | < 0.25 |
| Oc1ccc(C2Nc3ccccc3-c3ccnc4[nH]cc2c34)cc1I (stereo not shown) [Compound 75] | ≤ 0.25 | < 0.25 |
| COc1cc(C2Nc3ccccc3-c3ccnc4[nH]cc2c34)c(Br)cc1O (stereo not shown) [Compound 76] | ≤ 0.25 | < 0.25 |
| Oc1c(Br)cc(C2Nc3ccccc3-c3ccnc4[nH]cc2c34)cc1Br (stereo not shown) [Compound 78] | 0.25 to 2.5 | 0.25 to 2.5 |
| Cc1cc(C2Nc3ccccc3-c3ccnc4[nH]cc2c34)cc(C)c1O (stereo not shown) [Compound 79] | 0.25 to 2.5 | 0.25 to 2.5 |
| Oc1ncc(C2Nc3ccccc3-c3ccnc4[nH]cc2c34)c(O)n1 (stereo not shown) [Compound 80] | > 2.5 | > 2.5 |
| Oc1ccc(C2Nc3ccccc3-c3ncnc4[nH]cc2c34)cc1Cl (stereo not shown) [Compound 81] | ≤ 0.25 | < 0.25 |
| Oc1ccc(C2Nc3ccccc3-c3ncnc4[nH]cc2c34)cc1Br (stereo not shown) [Compound 82] | ≤ 0.25 | < 0.25 |
| Cc1cc(C2Nc3ccccc3-c3ncnc4[nH]cc2c34)ccc1O (stereo not shown) [Compound 83] | ≤ 0.25 | < 0.25 |
| COc1cc(C2Nc3ccccc3-c3ncnc4[nH]cc2c34)ccc1O (stereo not shown) [Compound 84] | ≤ 0.25 | < 0.25 |
| COc1cc(C2Nc3ccccc3-c3ncnc4[nH]cc2c34)cc(OC)c1O (stereo not shown) [Compound 85] | 0.25 to 2.5 | 0.25 to 2.5 |
| O=[N+]([O-])c1ccc(C2Nc3ccccc3-c3ccnc4[nH]cc2c34)cc1 (stereo not shown) [Compound 86] | > 2.5 | > 2.5 |
| COC(=O)c1ccc(C2Nc3ccccc3-c3ccnc4[nH]cc2c34)cc1 (stereo not shown) [Compound 87] | > 2.5 | > 2.5 |
| O=C(OCc1ccccc1)N1CCC(C2Nc3ccccc3-c3ccnc4[nH]cc2c34)CC1 (stereo not shown) [Compound 89] | > 2.5 | 0.25 to 2.5 |

| Compound | Ki [1] [µM] | Ki [2] [µM] |
| --- | --- | --- |
| c1ccc2c(c1)NC(C1CCNCC1)c1c[nH]c3nccc-2c13 (stereo not shown) [Compound 90] | 0.25 to 2.5 | 0.25 to 2.5 |
| Nc1ccc(C2Nc3ccccc3-c3ccnc4[nH]cc2c34)cc1 (stereo not shown) [Compound 93] | ≤ 0.25 | < 0.25 |
| Nc1ccc(C2=Nc3ccccc3-c3ccnc4[nH]cc2c34)cc1 [Compound 94] | ≤ 0.25 | < 0.25 |
| Cn1cc2c3c(ccnc31)-c1cccnc1NC2c1ccc(O)c(Cl)c1 (stereo not shown) [Compound 95] | ≤ 0.25 | < 0.25 |
| Cn1cc2c3c(ccnc31)-c1cccnc1NC2c1ccc(O)cc1 (stereo not shown) [Compound 96] | 0.25 to 2.5 | < 0.25 |
| Oc1ccc(C2Nc3ncccc3-c3ccnc4[nH]cc2c34)cc1 (stereo not shown) [Compound 97] | ≤ 0.25 | < 0.25 |
| COC(=O)Nc1ccc(C2Nc3ccccc3-c3ccnc4[nH]cc2c34)cc1 (stereo not shown) [Compound 99] | 0.25 to 2.5 | > 2.5 |
| COC(=O)Nc1ccc(C2c3c[nH]c4nccc(c34)-c3ccccc3N2C(=O)OC)cc1 (stereo not shown) [Compound 100] | 0.25 to 2.5 | > 2.5 |
| COC(=O)Nc1ccc(C2c3cn(C(=O)OC)c4nccc(c34)-c3ccccc3N2C(=O)OC)cc1 (stereo not shown) [Compound 101] | > 2.5 | > 2.5 |
| COC(=O)C1(c2ccc(N)cc2)Nc2ccccc2-c2ccnc3[nH]cc1c23 (stereo not shown) [Compound 102] | > 2.5 | > 2.5 |
| Oc1ccc(C2Nc3ccccc3-c3ccnc4[nH]cc2c34)cc1C(F)(F)F (stereo not shown) [Compound 104] | 0.25 to 2.5 | 0.25 to 2.5 |
| Oc1c(F)cc(C2Nc3ccccc3-c3ccnc4[nH]cc2c34)cc1F (stereo not shown) [Compound 106] | ≤ 0.25 | < 0.25 |
| CC(C)(C)c1cc(C2Nc3ccccc3-c3ccnc4[nH]cc2c34)cc(C(C)(C)C)c1O (stereo not shown) [Compound 108] | > 2.5 | > 2.5 |
| C1=Nc2ccccc2-c2ccnc3[nH]cc1c23 [Compound 109] | 0.25 to 2.5 | 0.25 to 2.5 |
| O=C(O)c1cc(C2Nc3ccccc3-c3ccnc4[nH]cc2c34)ccc1O (stereo not shown) [Compound 110] | > 2.5 | > 2.5 |
| COC(=O)c1cc(C2Nc3ccccc3-c3ccnc4[nH]cc2c34)ccc1O (stereo not shown) [Compound 111] | > 2.5 | > 2.5 |
| COc1cc(C2Nc3ccccc3-c3ccnc4[nH]cc2c34)cc(Cl)c1O (stereo not shown) [Compound 112] | ≤ 0.25 | < 0.25 |
| Oc1ccc(C2=Nc3ccccc3-c3ccnc4[nH]cc2c34)cc1OC(F)(F)F [Compound 113] | ≤ 0.25 | < 0.25 |
